*1 amine or outer side, *2 acyl side, *3 side chain or, on linkers, in order; H or OH if unused. Where a SMILES comes first, the peptide text is derived from it. Where no end group is shown, it is not given here. [ ]: non-standard residue; d: D form. Pen(Acm) = L-S-acetamidomethyl-penicillamine, CC(=O)NCSC(C)(C)[C@H](N[*:1])C(=O)[*:2]; Phe(4-CN) = N#Cc1ccc(C[C@H](N)C(=O)O)cc1; Met(O) = CS(=O)CC[C@H](N)C(=O)O; AllylGly = C=CC[C@H](N)C(=O)O; Tle = CC(C)(C)[C@H](N)C(=O)O; hSer = N[C@@H](CCO)C(=O)O
Tests used:
CaCo2 monolayers [1] = experiment: Trans Epithelial Electric Resistance (TEER) across cell monolayer; assay type: cell-based; set-up: key to Reduced TEER: + indicates an enhancement of the permeability of the tight junctions were observed; − indicates no enhancement of permeability was observed; details: for Reduced TEER: Caco-2 monolayer
Text: (§1) Agonists of tight junctions can be identified by their ability to enhance the flux of compounds (e.g. ions, Lucifer Yellow) through a cell monolayer that comprises tight junctions; or by their ability to reduce TEER across a cell monolayer that comprises tight junctions. Treatment of CaCo2 monolayers with peptide FCIGRL (SEQ ID NO: 1) led to a 51-fold enhancement of Lucifer Yellow permeability through CaCo2 monolayers compared to vehicle alone. Treatment of CaCo2 monolayers with peptide FCIGRL led to a 16-fold decrease in TEER across CaCo2 monolayers compared to vehicle alone.
(§2) Determination of TEER and Lucifer Yellow Flux
(§3) Prepare Modified Hank's Balanced Salt Solution (MHBSS) by obtaining 1 L bottle of HBSS removing 10 ml of HBSS and replacing it with 10 ml HEPES buffer pH 7.0. Adjust pH to 7.4±0.1 using concentrated NaOH (10N).
(§4) Remove Caco-2 cells from incubator, grown on 12-well, […], polycarbonate Transwell® filters (Corning) and record passage#, date cells seeded and age in days.
(§5) Aspirate cell culture medium from both the apical (AP) and basolateral (BL) compartments, replacing with 0.5 ml and 1.5 ml of MHBSS, respectively. Incubate cells at 37° C. for 30 minutes.
Using the MilliCell®-ERS instrument (Millipore), measure and record the transepithelial electrical resistance (TEER) across each filter and record.
(§6) Aspirate solution from the apical compartment of each filter (n=3 per condition) and replace with 0.5 ml of control and test solutions containing Lucifer Yellow and test compound if appropriate.
(§7) Place all plates into incubator set at 37° C. (±0.2), 50 RPM (±5) for a total of 180 minutes.
At t=30, 60, 120 and 180 minutes, measure and record the transepithelial electrical resistance (TEER) across each filter using the MilliCell-ERS instrument.
(§8) Cells: Caco-2 cells passage 40-60 grown on Transwell® plates for 21-28 days
(§9) Culture Medium: DMEM supplemented with 10% fetal bovine serum, 1% NEAA, 1% Penn/Strep
(§10) Buffers: Hank's Balanced Salt Solution (HBSS) without calcium and magnesium
(§11) Flasks: 100×20 mm Tissue culture dish Falcon.
(§12) Plates: 12 well polycarbonate Transwell® filters; 0.3 uM pore size

CaCo2 monolayers [2] = experiment: Epithelial flux of Lucifer Yellow through cell monolayer; assay type: cell-based; set-up: key to Enhanced LY permeability: + indicates an enhancement of the permeability of the tight junctions were observed; − indicates no enhancement of permeability was observed; details: for Enhanced LY permeability: Lucifer Yellow flux, Caco-2 monolayer
Text: as §1, §2, §3, §4, §5, §6, §7
At t=60, 120 and 180 minutes remove 100 μl from each basolateral compartment and place it in a 96-well plate for Lucifer Yellow analysis, replace with 100 μl of MHBSS.
Make a Lucifer Yellow standard curve with the following dilutions (7500 μM, 3750 μM, 750 μM, 375 μM, 75 μM, 37.5 μM, 7.5 μM, 3.75 μM, 0.75 μM) and pipette […] of each into a 96-well plate except for the first three standards mentioned above which require a 1:10 dilutions prior to transferring to the 96-well plate.
Harvest the remaining start solutions and what is left in each apical compartment into 1.5 ml vials. Freeze at −20° C. for future analysis.
Analyze each 96-well plate in a Tecan Spectra Fluor Plus using Magellan at 485 and 535 nm.
as §8, §9, §10, §11, §12

Row | Compound | Reduced TEER (CaCo2 monolayers [1]) | Enhanced LY permeability (CaCo2 monolayers [2]) | decrease in TEER across CaCo2 monolayers (CaCo2 monolayers [1]; compared to vehicle alone) [fold] | enhancement of Lucifer Yellow permeability through CaCo2 monolayers (CaCo2 monolayers [2]; compared to vehicle alone) [fold]
1 | 150 (Ac-F[hSer]IGRF; also: peptide conjugate) [compound 150] | + | + |  | 
2 | 63 (H-FCIGRF-OH; not fully specified) [compound 63] | + | + |  | 
3 | 191 (E[AllylGly]IGRL-NH2; N-terminus assumed; SMILES C=CC[C@H](NC(=O)[C@@H](N)CCC(=O)O)C(=O)N[C@H](C(=O)NCC(=O)N[C@@H](CCCNC(=N)N)C(=O)N[C@@H](CC(C)C)C(N)=O)[C@@H](C)CC) [compound 191] | − | − |  | 
4 | 123 (FPIGRL; also: peptide conjugate) [compound 123] | − | − |  | 
5 | 159 (F[L‑(R,S)‑3,4‑cis‑methanoproline]IGRL; not fully specified; also: peptide conjugate) [compound 159] | + | − |  | 
6 | 143 (H-F[Met(O)]IGRL-OH; not fully specified; also: peptide conjugate, Xaa: 'may be' L-methionine-sulfoxide) [compound 143] | − | − |  | 
7 | 196 (W[AllylGly]IGRL-NH2; N-terminus assumed; SMILES C=CC[C@H](NC(=O)[C@@H](N)Cc1c[nH]c2ccccc12)C(=O)N[C@H](C(=O)NCC(=O)N[C@@H](CCCNC(=N)N)C(=O)N[C@@H](CC(C)C)C(N)=O)[C@@H](C)CC) [compound 196] | − | + |  | 
8 | 134 (FLIGRL; also: peptide conjugate) [compound 134] | − | − |  | 
9 | 38 ([dL][dR]GIC[dF]; not fully specified) [compound 38] | − | − |  | 
10 | 114 (FTIGRL; also: peptide conjugate) [compound 114] | + | + |  | 
11 | 187 (Q[AllylGly]IGRL-NH2; N-terminus assumed; SMILES C=CC[C@H](NC(=O)[C@@H](N)CCC(N)=O)C(=O)N[C@H](C(=O)NCC(=O)N[C@@H](CCCNC(=N)N)C(=O)N[C@@H](CC(C)C)C(N)=O)[C@@H](C)CC) [compound 187] | − | − |  | 
12 | 97 (H-FCIGR[Tle]-OH; SMILES CC[C@H](C)[C@H](NC(=O)[C@H](CS)NC(=O)[C@@H](N)Cc1ccccc1)C(=O)NCC(=O)N[C@@H](CCCNC(=N)N)C(=O)N[C@H](C(=O)O)C(C)(C)C) [compound 97] | + | + |  | 
13 | 31 ([dF][dC][dI]GR[dL]; not fully specified) [compound 31] | − | − |  | 
14 | 161 (F[Pen(Acm)]IGRL; also: peptide conjugate) [compound 161] | + | + |  | 
15 | 119 (FFIGRL; also: peptide conjugate) [compound 119] | + | − |  | 
16 | 189 (S[AllylGly]IGRL-NH2; N-terminus assumed; SMILES C=CC[C@H](NC(=O)[C@@H](N)CO)C(=O)N[C@H](C(=O)NCC(=O)N[C@@H](CCCNC(=N)N)C(=O)N[C@@H](CC(C)C)C(N)=O)[C@@H](C)CC) [compound 189] | − | − |  | 
17 | 83 (GFCIGRL; not fully specified; printed as Gly-Phe-Cys-Ile-Gly-Arg-Leu) [compound 83] | + | + |  | 
18 | CC[C@H](C)[C@H](NC(=O)[C@H](CS)NC(=O)[C@@H](N)Cc1ccccc1)C(=O)NCC(=O)N[C@@H](CCCNC(=N)N)C(=O)N[C@@H](CC(C)C)C(=O)O [SEQ ID NO: 1, Phe-Cys-Ile-Gly-Arg-Leu] (H-FCIGRL-OH; N-terminus and C-terminus assumed) |  |  | 16 | 51
19 | 194 (G[AllylGly]IGRL-NH2; N-terminus assumed; SMILES C=CC[C@H](NC(=O)CN)C(=O)N[C@H](C(=O)NCC(=O)N[C@@H](CCCNC(=N)N)C(=O)N[C@@H](CC(C)C)C(N)=O)[C@@H](C)CC) [compound 194] | − | − |  | 
20 | 12 ([dF]CIGRL; also: peptide conjugate) [compound 12] | + | + |  | 
21 | 173 ([Phe(4-CN)]FIGRL; also: peptide conjugate, Xaa: 'may be' L-4-cyano-phenylalanine) [compound 173] | − | − |  | 
22 | 224 (F[AllylGly]IPRL-NH2; N-terminus assumed; SMILES C=CC[C@H](NC(=O)[C@@H](N)Cc1ccccc1)C(=O)N[C@H](C(=O)N1CCC[C@H]1C(=O)N[C@@H](CCCNC(=N)N)C(=O)N[C@@H](CC(C)C)C(N)=O)[C@@H](C)CC) [compound 224] | − | − |  | 
23 | 192 (V[AllylGly]IGRL-NH2; N-terminus assumed; SMILES C=CC[C@H](NC(=O)[C@@H](N)C(C)C)C(=O)N[C@H](C(=O)NCC(=O)N[C@@H](CCCNC(=N)N)C(=O)N[C@@H](CC(C)C)C(N)=O)[C@@H](C)CC) [compound 192] | − | − |  | 
24 | 166 (LRG[dI]LF-NH2; also: peptide conjugate) [compound 166] | − | − |  | 
25 | 204 (F[AllylGly]FGRL-NH2; N-terminus assumed; SMILES C=CC[C@H](NC(=O)[C@@H](N)Cc1ccccc1)C(=O)N[C@@H](Cc1ccccc1)C(=O)NCC(=O)N[C@@H](CCCNC(=N)N)C(=O)N[C@@H](CC(C)C)C(N)=O) [compound 204] | = | + |  | 
26 | 190 (T[AllylGly]IGRL-NH2; N-terminus assumed; SMILES C=CC[C@H](NC(=O)[C@@H](N)[C@@H](C)O)C(=O)N[C@H](C(=O)NCC(=O)N[C@@H](CCCNC(=N)N)C(=O)N[C@@H](CC(C)C)C(N)=O)[C@@H](C)CC) [compound 190] | − | − |  | 
27 | 168 (F[L‑4,5‑dehydro‑leucine]IGRL; not fully specified; also: peptide conjugate) [compound 168] | − | + |  | 

From US20120027720A1, “PEPTIDE CONJUGATES” (priority 2008, published 2012)
